Experimental data: patent US7928187B2, “Neuropeptide alarin” (Austria Wirtschaftsservice Gesellschaft mit beschrankter …, priority 2005, dated 2011)
Ends that are not written are not given here.

Key:
[1] = Luteinising hormone (LH) level after injection into the lateral ventricles; type: in vivo, mice (C57Bl/6); details: 5 nmol, single injection into lateral ventricles, blood collected 30 min after injection, adult male mice
Description: (§1) Intact adult male mice (C57Bl/6) were treated by a single injection into the lateral ventricles with either artificial cerebrospinal fluid (aCSF), alarin 1-25 (A1), alarin 3-25 (A3). Each treatment was given in an equimolar dose of 5 nmol. Blood was collected 30 min after injection and serum was assayed for LH content. (LH levels shown here in ng/ml).

[2] = Food intake after injection into the lateral ventricles; type: in vivo, mice (C57Bl/6); details: 5 nmol, single injection into lateral ventricles, one hour after injection, adult male mice
Description: (§2) Intact adult male mice (C57Bl/6) were treated by a single injection into the lateral ventricles with either artificial cerebrospinal fluid (aCSF), alarin 1-25 (A1), alarin 3-25 (A3). Each treatment was given in an equimolar dose of 5 nmol. Body weight and food weight were measured at 1 hr, 2 hr, and 24 hr post injection. (Shown here as grams of food consumed).

[3] = Body weight after injection into the lateral ventricles; type: in vivo, mice (C57Bl/6); details: 5 nmol, single injection into lateral ventricles, one hour after injection, adult male mice
Description: as §2, with “percent change in body weight from baseline).” for “grams of food consumed).”

CNS = assay: Functional assays in the CNS with murine alarin peptides; type: in vivo, mice (C57Bl/6); details: amidated synthetic murine peptides 1-25 and 3-25
Description: as §2, with “percent change in body weight from baseline).” for “grams of food consumed).”
as §2, §1

CD-1 mouse skin = assay: Inflammatory oedema formation (plasma extravasation) in mouse dorsal skin; type: in vivo
Description: Experiments involving mice were carried out under the Animals (Scientific Procedures) Act, 1986. Normal female CD-1 mice (22-27 g, 8-12 weeks) were obtained from Charles River, U.K. All mice were maintained on normal diet, with free access to food and water, in a climatically controlled environment. Animals were anaesthetized with urethane (25% w v-1; 2.5 g kg-1 i.p.) and the dorsal skin was shaved. Injection sites were chosen according to a randomized site pattern on the dorsal skin of the anaesthetized mouse. Agents were from Sigma, Poole, U.K., unless specified. Alarin (1-25)-amide (murine) alarin (3-32)-amide (murine) were custom synthesized by NeoMPS Inc. (Strasbourg, France). All peptides were dissolved in distilled water. The stock solutions (10 nM) were stored at −20° C. and further diluted in Tyrode's solution (137 mM NaCl, 2.7 mM KCl, 0.5 mM MgCl2, 0.4 mM NaH2PO4, 11.9 mM NaHCO3, 5.6 mM glucose) just prior use.
Plasma extravasation was used as an index of inflammatory oedema formation and measured as previously described (Cao et al, 1999). Briefly, test agents were diluted in Tyrode's solution and stored on ice. […] The amount of plasma extravasated (μl g-1 tissue) was calculated by comparing the amount of radioactivity in each skin site with that in 100 μl plasma from the same animal.

galanin receptors [4] = assay: Microphysiometry on galanin receptor expressing cells, receptor activation; type: cell-based, human; details: binding assays and microphysiometry on galanin receptor expressing cells
Description: After reaching confluency the cells are harvested and seeded into 3.0 μm pore transwells (Corning Costar) held in 12 well plates one day before the experiment. The cells are allowed to settle down in the culture medium and cultured overnight in serum-free growth-medium. The ECAR of cells is determined by using a Cytosensor Microphysiometer (Molecular Devices). A capsule spacer and a capsule insert are assembled in the transwells, transferred into a sensor chamber and kept in DMEM without sodium bicarbonate throughout the entire experiment at 37° C. The running medium is pumped through each sensor chamber at 50 μl min^−1. A typical pumping cycle of 120 s consists of a flow period of 90 s, followed by a flow-off period of 30 s. During flow-off periods, protons released from the cells accumulate in the sensor chamber, and the rate of proton release is quantified by fitting the sensor data to a straight line with the least-squares fit to the slope of the pH profile. Agonists or other agents are diluted into running medium and perfused through a second fluid path. […]
SH-SY5Y/GalR1 and SH-SY5Y/GalR2 cells (Berger 2004) were seeded into 3.0-μM pore size Transwells (Corning Costar, Cambridge, Mass., USA). The extracellular acidification rate was determined using a cytosensor microphysiometer (Molecular Devices, Ismanning, Germany) as previously reported (Lang et al., 2001).

GALR2 receptor = biological target: T1, GALR2 receptor (Homo sapiens, UniProt O43603); assay: Microphysiometry, extracellular acidification rate, SY5Y cells expressing GALR2; type: cell-based; details: human neuroblastoma cells SY5Y expressing GALR2; alarin 100 nM
T1 construct: expressed in transfected cells; host or cells: SH-SY5Y human neuroblastoma cells
T1 sequence (O43603 1-387): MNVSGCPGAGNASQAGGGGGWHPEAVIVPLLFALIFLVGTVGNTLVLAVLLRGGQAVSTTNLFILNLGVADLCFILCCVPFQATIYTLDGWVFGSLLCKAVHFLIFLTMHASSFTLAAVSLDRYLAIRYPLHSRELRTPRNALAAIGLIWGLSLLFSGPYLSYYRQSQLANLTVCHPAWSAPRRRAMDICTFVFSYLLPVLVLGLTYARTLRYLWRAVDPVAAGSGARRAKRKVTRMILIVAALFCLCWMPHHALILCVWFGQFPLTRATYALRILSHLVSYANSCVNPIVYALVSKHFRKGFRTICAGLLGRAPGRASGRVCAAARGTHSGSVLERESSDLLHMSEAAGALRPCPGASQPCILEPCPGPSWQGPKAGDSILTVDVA

galanin receptors [5] = assay: Receptor binding assay, displacement of radiolabeled GAL from membrane preparations; details: binding assays and functional microphysiometry, 50 pM [125I]GAL
Description: Membrane preparations and radioligand binding assays were performed according to Berger et al. (Berger et al., 2002). Displacement of radiolabeled GAL binding to membrane preparations (15 μg) was carried out in duplicates in a total volume of 120 μl of binding buffer containing 50 pM [125I]GAL (2,000 Ci/mmol; Amersham Pharmacia Biotech (Little Chalfont, UK) and different concentrations of synthetic murine alarin (1-25-amide) and alarin (3-25-amide).

Substance | plasma LH levels [1] | food intake [2] | body weight [3] | activity in the CNS (CNS) | potency in inhibition of oedema formation in the skin, alarin 1-25 compared with alarin 3-25 (CD-1 mouse skin; amidated synthetic murine peptides) | inhibition of inflammatory oedema (CD-1 mouse skin; co-injection with substance P (300 pmol) and CGRP (10 pmol), intradermal, murine dorsal skin) | activation of galanin receptors (galanin receptors [4]) | change in extracellular acidification (GALR2 receptor) | binding to galanin receptors (galanin receptors [5])
Alarin 3-25: amidated synthetic murine alarin peptide 3-25 (AHRSSPFPPRPTRAGRETQLLRS-NH2) | significant increase | significant decrease | significant reduction | active |  |  |  |  | 
Alarin 1-25: amidated synthetic murine alarin peptide 1-25 (APAHRSSPFPPRPTRAGRETQLLRS-NH2) |  |  |  | only alarin 3-25 was active in the CNS | more potent |  |  |  | 
APAHRSSTFPKWVTKTERGRQPLRS (listed as Homo sapiens) [alarin, novel neuropeptide, splice variant of GALP mRNA] |  |  |  |  |  | inhibition of inflammatory oedema | not able to activate these receptors | No change | can be excluded
